Reference: patent US7288556B2, “Antiproliferative 1,2,3-thiadiazole compounds” (QLT Inc., priority 2000, dated 2007)
Marks after values point to notes of the source that are not given here.

Tests used:
HUVEC [1] = assay: HUVEC endothelial proliferation in response to test compounds (MTS); type: cell-based
Description: (§1) Endothelial cell cultures: Cell lines used include HUVEC, EJG and MS1 and are routinely passaged 1 to 2 times weekly. Endothelial growth media (EGM) consists of Endothelial Base Media plus all supplements (Clonetics). For testing of compounds, endothelial cells were plated on 1% gelatin-coated plates. Prior to plating, gelatin solution was added to the plates for at least 10 minutes before plating, but excess solution removed immediately before adding cells. Sterile gelatin solution consists of 1% gelatin in dH2O that has been autoclaved. Endothelial cells form a characteristic cobblestone monolayer upon confluency. Typically, a T-75 plate contains 1 million microvascular cells upon confluency.
a. HUVEC Endothelial Proliferation in Response to Test compounds: HUVEC were cultured in 96-well plates and treated with a dilution series of test compounds for potential angiogenesis-related effects.
Day 0—Endothelium are plated at 5000 cells/well and at 10,000 cells/well.
Day1—Treatments are added in EGM culture medium in an appropriate dilution series (n=6 or 12). Controls included EGM alone, serum free medium (SFM), and EGM plus 0.5% DMSO.
Day 1-2, MTS/PMS solutions were added and plates read at 4 and 24 h after treatment.

HUVEC [2] = assay: 3H-Thymidine incorporation proliferation assay; type: cell-based; settings: 10 μm
Description: as §1
b. Thymidine incorporation proliferation assay: Cells were plated out and grown overnight. The next day the test compound or controls were added to the plates, along with diluted ^3H-thymidine added to a final concentration of 0.1 μCi/well, and the plates were incubated. After 24 h, the plates were spun down 1000 g for 10 min (for non-adherent cells) before removing the PBS. A volume of 120 μl of the scintillant fluid was added to each of the wells, and the plate was read.

IEC-18 Epithelium = assay: Matrigel invasion assay, IEC-18; type: cell-based; settings: 10 μm, 24 h, control 16.8
Description: (§2) c. Invasion Assays: Invasion of cells into surrounding tissue is a hallmark property of tissue remodeling. Tissue remodeling occurs during most pathological progression, including tumor progression, angiogenesis and during normal processes such as wound healing. The following invasion assays were performed using Biocoat® Cell Environments™ Matrigel Invasion Chamber 24-Well Plate Size (Becton Dickinson). The invasion chambers can be used to assess the ability of a cell to traverse an extracellular matrix under a variety of conditions. The chambers consist of a 24 well plate and […] that can be suspended in each well and act as an upper chamber. Cells place in the upper chamber insert must invade through a matrix in order to enter the lower chamber.
(§3) Cells were pre-labeled with ^3H-thymidine overnight. Typically, 5×10^5 cells were cultured overnight in 5 mls of serum-containing media spiked with 200 μl of thymidine stock solution. Cells were scraped off of the flask substratum and gently pipetted up and down to achieve single cell suspension in the medium. […]
(§4) After an incubation period of 24 h, media was carefully removed from the upper chamber insert and saved for scintillation counting. […] The relative amount of cell invasion was calculated by adding counts from the filters and lower chambers and dividing this sum by the total counts added initially to the upper chambers. […]

IEC-18-13 Epithelium = assay: Matrigel invasion assay, IEC-18-13; type: cell-based; settings: 10 μm, 24 h, control 34.9
Description: as §2, §3, §4

[3] = tested on: chick chorioallantoic membrane; assay: Chick chorioallantoic membrane (CAM) developmental angiogenesis assay; type: in vivo, chicken
Description: e. Chick chorioallantoic membrane assay (CAM assay): was performed on fertilized chicken eggs and used as a test for angiogenesis inhibition.
Approximately 4 dozen fertilized eggs were sprayed with 70% ETOH and placed in a 180 egg incubator (GQF Sportsman incubator). The eggs were incubated “rounded-side down” and were fully rotated along the vertical axis every 30 minutes at 37° C. under 90% relative humidity.
After 4 days, the eggs were placed upside down (round side up) for 5-10 minutes, before a round hole approximately 3 centimeters in diameter was created above the pointed end or “air hole” of the egg using sterile blunt-ended forceps (“deshelling”). The inner membrane was also removed, and the embryo was visible through this opening. A small portion of the outer membrane was then carefully removed using fine-tipped forceps in order to expose the CAM. Sterile Parafilm was placed over the de-shelled opening to create an airtight seal. The eggs were returned to the incubator (with no rotation) for 2 days.
Viable eggs were then treated with control and inhibitor compounds. Gelfoam™ gelatin sterile sponge (Upjohn) or 1-2 mm discs of methylcellulose saturated with physiological saline, buffer or an appropriate dilution of the compounds under investigation. The Gelfoam™ fragments of methylcellulose discs were added directly to the surface of the developing CAM. Care was taken not to add the treatment directly over a large vessel. The shells were marked in 3 places to aid in stereotactic localization of the treatment sponge or disc. An average of 6 eggs were included for each experimental condition. The treated eggs were returned to the incubator for 2 days.
The eggs were then assessed for blood vessel growth inhibition. Photomicrographs for records and visual examination were made using a Nikon dissecting microscope with an attached Nikon 35-mm camera body.

Lewis Lung cell line = settings: cells inoculated subcutaneously in rear flank of mice, compound i.p. daily
Description: Anti-tumour efficacy and dose response in allograft and xenograft models. Cell lines were selected from an in vitro assay based on ILK expression, and growth curves characterized in vivo. Preliminary tests were performed with the Lewis Lung cell line in a murine allograft tumor model. In parallel, human xenograft tumor lines were characterized.
Cells were inoculated subcutaneously in the rear flank of mice, and the test compound was administered i.p. daily. Tumors were measured and the size calculated, with the objective being a decrease in tumor growth compared to the controls.

[4] = HUVEC in log phase growth, 5 μm
[5] = HUVEC in log phase growth, 10 μm
[6] = HUVEC in log phase growth, 20 μm

NC(=O)c1nnsc1Nc1ccccc1 [KP-15807, 5-Phenylamino-[1,2,3]thiadiazole-4-carboxylicacid amide]
MTS Relative Absorbance 4 h (HUVEC [1]; [4]): 1.26 +/− 0.17
MTS Relative Absorbance 24 h (HUVEC [1]; [4]): 1.22 +/− 0.09
MTS Relative Absorbance 4 h (HUVEC [1]; [5]): 1.31 +/− 0.09
MTS Relative Absorbance 24 h (HUVEC [1]; [5]): 1.24 +/− 0.04
MTS Relative Absorbance 4 h (HUVEC [1]; [6]): 1.25 +/− 0.03
MTS Relative Absorbance 24 h (HUVEC [1]; [6]): 1.21 +/− 0.05
MTS Relative Absorbance 4 h (HUVEC [1]; HUVEC post-confluent, 5 μm): 2.06 +/− 0.20
MTS Relative Absorbance 24 h (HUVEC [1]; HUVEC post-confluent, 5 μm): 1.55 +/− 0.17
MTS Relative Absorbance 4 h (HUVEC [1]; HUVEC post-confluent, 10 μm): 2.30 +/− 0.05
MTS Relative Absorbance 24 h (HUVEC [1]; HUVEC post-confluent, 10 μm): 1.62 +/− 0.12
MTS Relative Absorbance 4 h (HUVEC [1]; HUVEC post-confluent, 20 μm): 2.52 +/− 0.05
MTS Relative Absorbance 24 h (HUVEC [1]; HUVEC post-confluent, 20 μm): 1.71 +/− 0.02
3H-Thymidine incorporation at 24 h (HUVEC [2]; HUVEC in log phase growth): 746 +/− 200
3H-Thymidine incorporation at 48 h (HUVEC [2]; HUVEC in log phase growth): 1251 +/− 117
3H-Thymidine incorporation at 24 h (HUVEC [2]; HUVEC post-confluent): 571 +/− 86
3H-Thymidine incorporation at 48 h (HUVEC [2]; HUVEC post-confluent): 452 +/− 71*
% Cell Invasion (IEC-18 Epithelium): 9%
% Cell Invasion (IEC-18-13 Epithelium): 8%
% Inhibition ([3]; 5 μm): 60%
% Inhibition ([3]; 10 μm): 75%
% Inhibition ([3]; 20 μm): 85%
tumor growth compared to control (Lewis Lung cell line): succeeded in reducing tumor growth compared to control
melting point: 195 to 197 °C
